We go through eight molecules from US20260345723A1, “Treatments for Opioid-Induced Respiratory Depression” (priority 2023, published 2026).

In series [1] the test system is CXCR4. Particulars: cited from earlier work.
For series [2], the system named is CCR2. The following applies: selective CCR2 receptor antagonists, mice; cited from earlier work.
The test system of series [3] is CCR2. Particulars: pretreatment with CCR2 antagonist; cited from earlier work.
The next series concerns chemokine release. The following applies: cited from earlier work.
Another series relates to tolerance to morphine. Particulars: in vivo; cited from earlier work.
In series [4] the test system is mu-opioid receptor (OPRM1). Particulars: rat, in vivo.
Series [5] concerns morphine-induced respiratory depression. The following applies: rat, in vivo.
Series [6] deals with CCR5. Particulars: rat, in vivo.
Another series relates to GFAP mRNA. The following applies: rat, in vivo.
The subject of series [7] is CXCR4. Particulars: rat, in vivo.
Series [8] deals with CCR2. Particulars: rat, in vivo.
For a further series, the system named is IBA1 mRNA. The following applies: rat, in vivo.
Series [9] concerns CXCR4. The following applies: pretreatment, hypoxic neonatal rats; cited from earlier work.
The subject of series [10] is CCR5. The following applies: CCR5 antagonist, rats; cited from earlier work.
The test system of series [11] is CCR5. The following applies: cited from earlier work.

For the molecule `c1cc(CN2CCCNCCNCCCNCC2)ccc1CN1CCCNCCNCCCNCC1` [AMD3100], in the series on CXCR4 [1], the CXCR4 antagonism result is on record as “antagonist of CXCR4” and the “mobilization of hematopoietic stem cells” value is “mobilize hematopoietic stem cells”.

Turning to `COc1ccc(C2(O)CCC(N3CC[C@@H](NC(=O)CNC(=O)c4cccc(C(F)(F)F)c4)C3)CC2)cn1` (stereo partly shown) [INCB 3284], the methamphetamine-induced place conditioning result in the series on CCR2 [2] was “reduce”.

In the case of `Cc1ccc2c(c1)C1(CCN(CCc3nc(-c4ccccc4)oc3C)CC1)OC(=O)N2` [RS504393], the methamphetamine-induced place conditioning entry in the series on CCR2 [2] is “reduce”.

As for `O=C1Nc2ccccc2C2(CCN(CCc3ccc(C(F)(F)F)cc3)CC2)O1` [RS-102895], in the series with CCR2 [3], the “inflammation caused by CCL2” value was “inhibited”.

Take `CN(C)c1ccc(O)c2c1C[C@H]1C[C@H]3[C@H](N(C)C)C(O)=C(C(N)=O)C(=O)[C@@]3(O)C(O)=C1C2=O` [minocycline]: the chemokine release entry in the series with chemokine release is listed as “inhibits chemokine release”. Further, the tolerance to morphine entry in the series with tolerance to morphine is on record as “attenuates tolerance to morphine”.

Take `CN1CC[C@]23c4c5ccc(O)c4O[C@H]2[C@@H](O)C=C[C@H]3[C@H]1C5` [morphine, reference compound]: the “OPRM1 protein levels, VTA” value in [4] is listed as “significantly increased OPRM1 protein levels”. Further, in series [5], the “SpO2 (oxygen saturation)” value is recorded as “under 90%”, the “cumulative SpO2” value is reported as “significantly reduced SpO2” and the cumulative respiratory rate entry was “significantly increased respiratory rate”. Besides, in the series with CCR5 [6], the “CCR5 protein levels, NAC” value was “significantly reduced CCR5 protein levels” and the “CCR5 protein levels, VTA” value is on record as “did not significantly change”. In addition, in the series on GFAP mRNA, the “GFAP mRNA levels, NAC” value was “significantly enhanced”; the “GFAP mRNA levels, VTA and PFC” value is reported as “no significant changes were detected”. For the same molecule, in the series on CXCR4 [7], the “CXCR4 protein levels, VTA” value is “significantly enhanced CXCR4 protein levels”. Also, in the series with CCR2 [8], the “CCR2 protein levels, NAC” value is listed as “significantly reduced CCR2 protein levels”; the “CCR2 protein levels, PFC” value was “significantly enhanced CCR2 protein levels”; the “CCR2 protein levels, VTA” value is given as “significantly enhanced CCR2 protein levels”. For the same molecule, the “microglial gene expression, VTA, NAC, PFC” value in the series on IBA1 mRNA is given as “not altered”.

For the molecule dexamethasone, in the series on CXCR4 [9], the CXCR4 receptors result was “downregulates CXCR4 receptors” and the neuroprotection entry was “induces neuroprotection”.

For maraviroc, in the series on CCR5 [10], the “locomotor-activating effects of cocaine” value is “reduce” and the “rewarding efficacy of cocaine” value is “reduce”. In the series on CCR5 [11], the “HIV entry into cells that express CCR5” value is given as “inhibits the entry”.
